Columns and labels:
[1] = test system: Mast/stem cell growth factor receptor Kit (Homo sapiens), P10721 [V559D,V654A]; assay: Inhibition of KIT V559D/V654A mutant (unknown origin) assessed as residual activity at 1000 nM by KINOMEscan analysis relative to control
[2] = target: T1, Muscle, skeletal receptor tyrosine-protein kinase (Homo sapiens) (UniProt O15146); assay: Inhibition of MUSK (unknown origin) assessed as residual activity at 1000 nM by KINOMEscan analysis relative to control
T1 sequence (whole entry): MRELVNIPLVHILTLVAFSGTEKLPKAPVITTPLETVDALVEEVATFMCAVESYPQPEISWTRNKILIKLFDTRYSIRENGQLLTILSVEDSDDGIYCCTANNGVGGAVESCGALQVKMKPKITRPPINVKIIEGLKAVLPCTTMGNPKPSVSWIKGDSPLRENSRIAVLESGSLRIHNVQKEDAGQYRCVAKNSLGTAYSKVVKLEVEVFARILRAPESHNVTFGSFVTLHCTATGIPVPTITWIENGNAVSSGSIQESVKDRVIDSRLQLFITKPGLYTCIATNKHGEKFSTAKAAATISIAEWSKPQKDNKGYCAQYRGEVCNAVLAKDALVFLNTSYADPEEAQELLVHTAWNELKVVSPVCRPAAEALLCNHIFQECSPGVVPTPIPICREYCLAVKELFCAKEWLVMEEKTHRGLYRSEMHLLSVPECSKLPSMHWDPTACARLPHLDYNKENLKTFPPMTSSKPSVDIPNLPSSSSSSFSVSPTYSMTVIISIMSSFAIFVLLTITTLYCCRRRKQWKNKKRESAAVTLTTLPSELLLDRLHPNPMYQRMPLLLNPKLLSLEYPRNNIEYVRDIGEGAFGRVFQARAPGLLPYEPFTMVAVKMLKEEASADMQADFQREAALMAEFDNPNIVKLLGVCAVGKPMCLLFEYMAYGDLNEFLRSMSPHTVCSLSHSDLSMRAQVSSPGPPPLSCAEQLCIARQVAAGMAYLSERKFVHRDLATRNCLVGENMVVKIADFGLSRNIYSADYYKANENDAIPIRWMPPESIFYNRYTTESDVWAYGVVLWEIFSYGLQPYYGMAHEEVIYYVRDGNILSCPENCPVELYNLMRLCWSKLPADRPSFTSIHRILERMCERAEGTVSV

[3] = target: T2, Serine/threonine-protein kinase TAO2 (Homo sapiens) (UniProt Q9UL54); assay: Inhibition of TAOK2 (unknown origin) assessed as residual activity at 1000 nM by KINOMEscan analysis relative to control
T2 sequence (whole entry): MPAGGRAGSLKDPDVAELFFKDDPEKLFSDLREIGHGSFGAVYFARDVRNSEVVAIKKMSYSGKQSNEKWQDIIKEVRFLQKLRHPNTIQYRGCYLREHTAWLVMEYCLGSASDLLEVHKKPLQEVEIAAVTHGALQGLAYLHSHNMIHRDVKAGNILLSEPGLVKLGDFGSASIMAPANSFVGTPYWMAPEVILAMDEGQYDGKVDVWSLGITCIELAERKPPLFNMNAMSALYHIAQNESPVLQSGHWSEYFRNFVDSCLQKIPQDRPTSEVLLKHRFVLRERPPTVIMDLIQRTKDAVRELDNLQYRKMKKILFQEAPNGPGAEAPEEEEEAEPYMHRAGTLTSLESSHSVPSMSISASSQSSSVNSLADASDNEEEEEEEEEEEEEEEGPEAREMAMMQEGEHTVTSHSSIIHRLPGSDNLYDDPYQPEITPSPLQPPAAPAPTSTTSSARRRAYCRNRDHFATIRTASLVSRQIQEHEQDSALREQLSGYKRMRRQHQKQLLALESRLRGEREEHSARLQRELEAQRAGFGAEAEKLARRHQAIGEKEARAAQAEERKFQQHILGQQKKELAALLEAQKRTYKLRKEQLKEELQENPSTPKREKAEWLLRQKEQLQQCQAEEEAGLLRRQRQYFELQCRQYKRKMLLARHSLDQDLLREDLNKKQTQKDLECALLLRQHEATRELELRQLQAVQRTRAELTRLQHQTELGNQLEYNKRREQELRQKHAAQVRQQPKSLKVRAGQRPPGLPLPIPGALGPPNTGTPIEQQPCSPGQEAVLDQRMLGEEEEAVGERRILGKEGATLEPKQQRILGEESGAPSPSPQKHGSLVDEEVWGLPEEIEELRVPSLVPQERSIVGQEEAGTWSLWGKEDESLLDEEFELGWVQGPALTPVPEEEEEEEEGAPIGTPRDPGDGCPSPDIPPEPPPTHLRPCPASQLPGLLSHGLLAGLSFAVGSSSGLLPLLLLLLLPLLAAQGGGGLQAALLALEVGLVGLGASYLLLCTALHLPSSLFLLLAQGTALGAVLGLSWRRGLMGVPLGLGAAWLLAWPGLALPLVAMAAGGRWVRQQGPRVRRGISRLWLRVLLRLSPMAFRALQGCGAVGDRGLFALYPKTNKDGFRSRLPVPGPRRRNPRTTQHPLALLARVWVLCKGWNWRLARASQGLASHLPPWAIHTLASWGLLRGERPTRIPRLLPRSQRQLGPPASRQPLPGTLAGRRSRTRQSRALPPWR

Sequence of Mast/stem cell growth factor receptor Kit (Homo sapiens), P10721 [V559D,V654A] (P10721 whole entry V559D/V654A): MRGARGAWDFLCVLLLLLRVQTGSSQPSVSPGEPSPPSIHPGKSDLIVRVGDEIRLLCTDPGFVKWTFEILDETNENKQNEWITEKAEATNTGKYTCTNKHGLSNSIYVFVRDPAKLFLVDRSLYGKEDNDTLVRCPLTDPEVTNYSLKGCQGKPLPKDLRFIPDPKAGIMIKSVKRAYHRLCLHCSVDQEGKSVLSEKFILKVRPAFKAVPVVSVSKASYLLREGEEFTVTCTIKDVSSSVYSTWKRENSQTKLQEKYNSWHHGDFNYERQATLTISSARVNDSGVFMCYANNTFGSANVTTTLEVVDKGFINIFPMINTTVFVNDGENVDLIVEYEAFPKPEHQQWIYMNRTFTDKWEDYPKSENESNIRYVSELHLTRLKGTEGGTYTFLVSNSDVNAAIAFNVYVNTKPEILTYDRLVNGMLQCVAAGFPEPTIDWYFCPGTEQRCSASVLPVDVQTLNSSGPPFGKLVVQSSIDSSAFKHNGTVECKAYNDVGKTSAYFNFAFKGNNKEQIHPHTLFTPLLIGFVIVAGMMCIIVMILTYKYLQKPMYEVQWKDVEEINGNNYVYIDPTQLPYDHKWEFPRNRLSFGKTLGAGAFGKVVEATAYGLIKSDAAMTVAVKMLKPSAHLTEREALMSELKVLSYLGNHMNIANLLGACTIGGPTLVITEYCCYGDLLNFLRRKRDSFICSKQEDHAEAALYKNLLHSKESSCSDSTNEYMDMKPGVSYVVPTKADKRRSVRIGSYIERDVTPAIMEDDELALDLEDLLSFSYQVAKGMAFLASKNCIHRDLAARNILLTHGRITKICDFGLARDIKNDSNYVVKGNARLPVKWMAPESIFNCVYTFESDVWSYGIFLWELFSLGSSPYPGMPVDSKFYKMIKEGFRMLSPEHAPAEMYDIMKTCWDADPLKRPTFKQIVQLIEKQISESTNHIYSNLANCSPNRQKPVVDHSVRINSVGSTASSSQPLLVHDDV

Compound | Activity [1] | Activity [2] | Activity [3]
COc1cc2nc(C)nc(N[C@H](C)c3cccc(-c4cn[nH]c4)c3)c2cc1OC | 92% | 91% | 78%
COc1cc2ncnc(N[C@H](C)c3cccc4ccccc34)c2cc1OC | 100% | 97% | 90%

— ChEMBL document CHEMBL5678818, “Discovery of potent SOS1 inhibitors that block RAS activation via disruption of the RAS-SOS1 interaction” (Proc Natl Acad Sci U S A, 2019)
